These results are taken from publication PMC9804084, “Multiple drug transporters contribute to the brain transfer of levofloxacin” (CNS Neuroscience & Therapeutics, 2022).

Data set [1] relates to T1, Breast cancer resistance protein (BCRP).
T1 construct: from tissue; host or cells: living rat (blood-brain barrier, choroid plexus)
Description: In vivo microdialysis pharmacokinetics of LVFX with BCRP inhibitor Ko143. The following applies: rat, intravenous, with Ko143 15 mg/kg i.p., 30 min before LVFX, Ko143 group, Ko143 15 mg/kg i.p. + LVFX 50 mg/kg, N=5. The protocol:
(§1) On the day of surgery, rats were anesthetized using inhaled isoflurane via a facemask. The rats were placed in a stereotaxic frame (Gene&I), and the body temperature was maintained with a homoeothermic blanket set at 37°C. A midline incision was made to expose the skull. According to the Paxinos and Watson atlas, two microdialysis intracerebral guide cannulae (Eicom Co.) were implanted into the hippocampus CA1 region (Hp‐CA1 coordinates: AP −4.16 mm; ML −2.2 mm; DV −2.9 mm) and lateral ventricle (LV coordinates: AP −1.4 mm; ML +2.2 mm; DV −3.4 mm). Fixed to the skull using a screw and dental cement. After 3 days of recovery, the rats were anesthetized with isoflurane again. An intravascular probe (TP‐100‐20; 20 mm, Eicom Co.) was implanted into the jugular vein toward the right atrium. After the blood microdialysis probe was positioned within the jugular vein, the pipeline was connected to perfuse with ACD solution (citric acid 3.5 mM; sodium citrate 7.5 mM; dextrose 13.6 mM) at a flow rate of […], and the Hamilton microinjection pump was used for continuous perfusion. After stopping isoflurane inhalation, the rats were allowed to wake up naturally on the homoeothermic blanket. The awake rats were placed in a device that allowed them to move freely. Animals were allowed to recover for an additional 24 h.
(§2) All microdialysate concentrations (C m) from the hippocampal ECF and lateral ventricle CSF were converted to the unbound drug concentration (C u) at the target site using the following formula: C u = C m/R dial.
(§3) A total of 32 rats were randomly divided into the following groups: • Control group, N = 12: vehicle solution + LVFX (50 mg/kg). • TAR group, N = 5: Tariquidar (8 mg/kg) + LVFX (50 mg/kg). • Ko143 group, N = 5: Ko143 (15 mg/kg) + LVFX (50 mg/kg). • MK571 group, N = 5: MK571 (20 mg/kg) + LVFX (50 mg/kg). • PRO group, N = 5: Probenecid (50 mg/kg) + LVFX (50 mg/kg).
(§4) Levofloxacin was freshly dissolved in isotonic saline and administered via tail vein injection. Thirty minutes before LVFX administration, the intervention drugs of each group were injected intraperitoneally. To reduce the possible effect of solvents on BBB or BCSFB permeability of LVFX, we prioritized water as the solvent. However, Tariquidar and Ko143 are insoluble in water, and a cosolvent must be used to prepare agents that animals can tolerate. According to the different physicochemical properties of these four inhibitors, the preparation of each transporter inhibitor solution in this experiment was as follows. • P‐glycoprotein (P‐gp) inhibitor Tariquidar[22]: Tariquidar was freshly dissolved in DMSO to 8 mg/ml and then diluted to 4 mg/ml with a solution containing 10% Tween‐80, 25% PEG300, and 65% sterile water. • Breast cancer resistance protein (BCRP) inhibitor Ko143[23]: Ko143 was freshly dissolved in DMSO to 15 mg/ml and then diluted to 7.5 mg/ml with a solution containing 10% Tween‐80, 25% PEG300, and 65% sterile water. • Multidrug resistance‐associated proteins (MRPs) inhibitor MK571[24]: MK571 sodium salt hydrate was dissolved in 1.25% (w/v) aq sodium hydrogen carbonate (NaHCO3) solution to obtain a concentration of 10 mg/ml. • Organic anion transporters (OATs) inhibitor probenecid[25]: Probenecid was dissolved in NaOH (pH = 9.0–9.2) alkalized physiological saline to obtain a concentration of 25 mg/ml.
(§5) The pipelines where the blood and brain probes were installed were perfused at the speed of 2 μl/min with ACD solution and ACSF, respectively. Two brain probes were inserted into guide cannulas of the target site and allowed to equilibrate for 1 h. Subsequently, the rats were treated according to their corresponding groups in the device where they could move freely. Microdialyses samples were collected every 15 min using a fraction collector (EFC‐96, Eicom Co.) for 3 h and stored at 4°C until analysis. Finally, rats were anesthetized and decapitated, and their brain was harvested.

Data set [2] addresses T2, Breast cancer resistance protein (BCRP) (Rattus norvegicus, UniProt Q80W57).
T2 construct: from tissue; host or cells: living rat (blood-brain barrier, choroid plexus)
T2 sequence (Q80W57 1-657): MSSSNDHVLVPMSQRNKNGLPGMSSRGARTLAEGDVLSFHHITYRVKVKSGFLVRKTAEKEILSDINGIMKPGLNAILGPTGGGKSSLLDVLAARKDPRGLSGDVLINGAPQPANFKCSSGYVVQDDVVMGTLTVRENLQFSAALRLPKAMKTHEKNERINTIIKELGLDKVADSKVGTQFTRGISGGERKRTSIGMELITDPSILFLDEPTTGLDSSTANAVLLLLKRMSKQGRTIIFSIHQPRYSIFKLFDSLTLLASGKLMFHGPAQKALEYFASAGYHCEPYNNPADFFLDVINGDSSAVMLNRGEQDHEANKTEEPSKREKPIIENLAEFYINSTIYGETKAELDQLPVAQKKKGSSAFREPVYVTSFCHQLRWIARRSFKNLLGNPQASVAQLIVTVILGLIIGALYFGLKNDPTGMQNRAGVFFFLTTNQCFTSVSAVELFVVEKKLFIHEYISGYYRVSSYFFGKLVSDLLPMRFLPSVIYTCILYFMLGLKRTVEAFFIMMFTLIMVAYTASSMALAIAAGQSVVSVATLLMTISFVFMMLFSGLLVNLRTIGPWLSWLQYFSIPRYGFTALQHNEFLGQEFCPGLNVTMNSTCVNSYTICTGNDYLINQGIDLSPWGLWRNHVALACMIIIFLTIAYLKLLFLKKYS
Described as above. The following applies: intravenous, with Ko143 15 mg/kg i.p., Ko143 group, Ko143 15 mg/kg i.p. + LVFX 50 mg/kg; for MRT / AUC(0-inf) / Cmax / half-life / AUC(0-t): mean ± SD; for MRT / Tmax / AUC(0-inf) / Cmax / half-life: N=5; for AUC(0-t): N=5, read-out: AUC0–180 (converted). How it is done:
as §1, §2, §3, §4, §5

The mark [3] stands for this setting: CSF (lateral ventricle microdialysate, unbound), CSF.
The mark [4] stands for this setting: brain ECF (hippocampal microdialysate, unbound), 30 min before LVFX, brain ECF.

Read-outs that look alike come from different tables or passages of the source.

Usually MRT stands for a mean duration of stay, worked out from the concentration-time curve. By Tmax is commonly meant the time from dosing to the highest level. For orientation: AUC(0-inf) means the area under the concentration-time curve extrapolated to infinity. By Cmax is commonly meant the maximum level reached in the sampled fluid or tissue. What is called half-life is the time needed for the level to fall by half in the phase considered. Regarding `C[C@H]1COc2c(N3CCN(C)CC3)c(F)cc3c(=O)c(C(=O)O)cn1c23` [LVFX, Levofloxacin], the Kp in data set [1] (CSF / blood (unbound, microdialysate), AUCu,CSF/AUCu,blood, read-out: K p,uu,CSF) amounted to 0.424 ± 0.035. Moreover, the Kp in data set [1] (brain ECF / blood, AUCu,ECF/AUCu,blood, read-out: K p,uu,ECF) came out at 0.389 ± 0.024. The MRT in data set [2] (CSF (lateral ventricle microdialysate, unbound), 30 min before LVFX, CSF) is 69.6 min. In addition, in data set [2] (setting [3]), the time of peak concentration (Tmax) is 15 min, the AUC(0-inf) was 4940 ng·h/mL, the Cmax is 4260 ± 320 ng/mL and the half-life is 41.8 ± 6.9 min. Also, the AUC(0-t) in data set [2] (setting [3]) was 4650 ng·h/mL. Besides, in data set [2] (setting [4]), the Tmax was 15 min, the AUC(0-inf) is 4650 ng·h/mL, the Cmax is 3710 ± 250 ng/mL and the MRT was 75.5 min. In data set [2] (setting [4]), the half-life was determined as 44.4 ± 10.4 min and the AUC(0-t) is 4280 ng·h/mL. Moreover, in data set [2] (30 min before LVFX, blood), the Tmax is 15 min, the area under the curve AUC(0-inf) was 11900 ng·h/mL, the Cmax turned out to be 11000 ± 770 ng/mL and the MRT is 67.7 min. In data set [2] (30 min before LVFX, blood), the half-life is 42.8 ± 7.7 min and the AUC(0-t) is 11100 ng·h/mL.
